Experiments:
Format in all cases: biochemical
rhNaglu [1] = target: T1, rhNaglu (Homo sapiens, UniProt P54802); experiment: Naglu substrate analysis: hydrolysis of UDP-sugars by rhNaglu, PAD-HPLC; conditions: 0.8 mM UDP-sugar, rhNaglu 2.6 to 2,000 μg/ml, Tris pH 7.15, 37° C., 1 hour
T1 construct: The N-terminal 23 amino acids are cleaved as the precursor protein enters the endoplasmic reticulum, resulting in a mature form; made in house; host or cells: human fibrosarcoma HT1080 cell clone over-expressing rhNaglu
T1 sequence (P54802 24-743): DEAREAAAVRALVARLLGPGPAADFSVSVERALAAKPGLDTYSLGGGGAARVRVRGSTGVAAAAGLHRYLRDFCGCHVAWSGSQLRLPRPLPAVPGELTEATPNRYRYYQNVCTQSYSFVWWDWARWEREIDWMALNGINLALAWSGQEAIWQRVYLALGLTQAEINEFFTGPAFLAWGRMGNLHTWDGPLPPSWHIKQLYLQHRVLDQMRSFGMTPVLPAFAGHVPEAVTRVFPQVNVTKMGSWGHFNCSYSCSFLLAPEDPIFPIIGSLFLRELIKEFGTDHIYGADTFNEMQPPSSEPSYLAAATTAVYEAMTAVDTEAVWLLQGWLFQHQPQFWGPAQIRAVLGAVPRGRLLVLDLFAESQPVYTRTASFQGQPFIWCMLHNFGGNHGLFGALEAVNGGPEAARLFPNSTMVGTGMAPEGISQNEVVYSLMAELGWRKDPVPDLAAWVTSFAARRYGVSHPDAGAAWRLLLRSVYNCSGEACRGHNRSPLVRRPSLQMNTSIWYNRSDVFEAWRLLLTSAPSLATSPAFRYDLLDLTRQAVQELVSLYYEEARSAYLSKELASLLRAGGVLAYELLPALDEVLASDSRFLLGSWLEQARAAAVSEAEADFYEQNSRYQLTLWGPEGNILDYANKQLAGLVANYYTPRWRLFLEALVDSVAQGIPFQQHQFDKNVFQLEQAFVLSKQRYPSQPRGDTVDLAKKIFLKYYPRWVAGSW
Protocol: Recombinant human Naglu was co-incubated with uridine diphosphate N-acetylglucosamine (UDP-GlcNAc) or uridine diphosphate N-acetyl galactosamine (UDP-GalNAc). UDP-GlcNAc, GlcNAc (N-acetylglucosamine) and UDP-GalNAc were detected using PAD-HPLC (Pulsed Amperometric Detection-High Pressure Liquid Chromatography) that was modified after Chavaroche et al. 2011.
Recombinant human Naglu was dialyzed into Tris buffer (40 mM Tris pH 7.15, 100 mM NaCl, 4 mM MgCl2, and 4 mM MnCl2) and concentrated with VivaSpin® sample concentrators having a 30 kDa cut-off (Viva Products, Inc., Littleton, Mass.). […]
Samples were then subjected to centrifugation at 10,000 rpm, and the resulting supernatants were loaded on PA10 columns and detected by PAD-HPLC (Pulsed Amperometric Detection-High Pressure Liquid Chromatography) (Dionex ICS-3000 Ion Chromatography System (Thermo Fisher Scientific, Inc., Sunnyvale, Calif.)). […] The peak areas for the eluted UDP-GlcNAc were measured, and the reductions of the area under the curve (AUC) in response to increased concentrations of rhNaglu were determined (FIG. 1A). A new peak at 10.7 minutes was detected on the chromatograms of samples treated with concentrations of rhNaglu of 23.4 μg/ml and above. […] The peak areas for the eluted GlcNAc were measured, and the increases of the AUC in response to increased concentrations of rhNaglu were determined (FIG. 1B). […]

rhNaglu [2] = target: T1, rhNaglu; experiment: Isothermal titration calorimetry (ITC) of UDP-GlcNAc hydrolysis by rhNaglu; conditions: preliminary ITC data
Source text: The reduction of the UDP-GlcNAc substrate in the samples containing rhNaglu (FIG. 3A) and the formation of the reaction product GlcNAc in the samples containing rhNaglu (FIG. 3B) was apparent. The reductions of UDP-GlcNAc and the formation of GlcNAc were dependent on the initial concentration of UDP-GlcNAc in the reaction sample.

rhNaglu [3] = target: T1, rhNaglu; experiment: Naglu activity assay with various inhibitors (4MU-GlcNAc fluorescent substrate); conditions: added at 0.0625, 0.25, 1, 4 and 8 mM; 37° C., 1 hour, pH 4.5
Protocol: A 10 mM stock of Naglu activity substrate solution was prepared by dissolving 5 mg of substrate, i.e., 4-methylumbelliferyl-N-acetyl-α-D-glucosaminide, in 250 μl of 100% DMSO. Naglu activity assay reaction buffer (0.1 M sodium acetate, 0.5 mg/ml BSA, pH 4.5) was then added to bring the volume up to 1318 μl. This 10 mM substrate stock solution was then diluted 10 fold with reaction buffer to make the final 1 mM substrate solution.
Samples and controls were pre-diluted in reaction buffer. 10 μl of each pre-diluted sample/control were applied in duplicate wells on a black clear bottom 96 well plate. 75 μl of 1 mM substrate solution containing various concentrations of inhibitors were added to each well. The plates were sealed with plate sealer and wrapped with aluminum foil. The plates were then placed in a Boekel Jitterbug Microplate Incubator Shaker (Cole-Parmer, Vernon Hills, Ill.) and shaken (setting at #1) at 37° C. for 1 hour. 200 μl of Stop Buffer (0.2 M Glycine, pH 10.7) were then added to all of the wells and fluorescence emission (excitation/emission at 360 nm/460 nm, respectively) was measured using a SpectraMax® Plus M2 plate reader from Molecular Devices (Sunnyvale, Calif.).
To further confirm that rhNaglu could hydrolyze UDP-GlcNAc, we investigated whether UDP-GlcNAc inhibited the hydrolysis by rhNaglu of the fluorescent substrate 4MU-GlcNAc (4-methylumbelliferyl-N-acetyl-α-D-glucosaminide) in a Naglu activity assay. Briefly, UDP-GlcNAc, as well as GlcNAc, UDP-GalNAc and Glucosamine, were added to the Naglu activity assay at 0.0625, 0.25, 1, 4 and 8 mM concentrations. The fluorescence emitted from these samples was compared to control samples only including rhNaglu and 4MU-GlcNAc.

Substance: uridine diphosphate N-acetylglucosamine [UDP-GlcNAc]
- hydrolysis by rhNaglu (rhNaglu [1]): hydrolyses
- Km of hydrolysis by rhNaglu (rhNaglu [2]): milimolar range
- inhibition of rhNaglu activity toward 4MU-GlcNAc (rhNaglu [3]): Inhibition

Source: patent publication US20170267986A1, “GENERATION OF MANNOSE-6-PHOSPHATE CONTAINING RECOMBINANT ALPHA-N-ACETYL GLUCOSAMINIDASE” (SHIRE HUMAN GENETIC THERAPIES, INC., priority 2014, published 2017)
